Measurements as given in BindingDB's records for doi:10.1021/acsmedchemlett.7b00315 (Astrazeneca, 2017).

Legend:
[1] = Antagonist activity at human CCR4 expressed in Th2 cells coexpressing CD45RA+ assessed as inhibition of CCL17 induced chemotaxis
[2] = Antagonist activity at human CCR4 expressed in Th2 cells coexpressing CD45RA+ assessed as inhibition of CCL22 induced chemotaxis
[3] = Antagonist activity at CCR4 in human primary Th2 cells by chemotaxis assay

Row | IC50 [1] [µM] | IC50 [2] [µM] | IC50 [3] [µM] | SMILES
1 | 0.501 | 0.501 | – | COc1nccnc1NS(=O)(=O)c1cccc(Cl)c1Cl
2 | 0.316 | 0.158 | – | COc1nc(F)cnc1NS(=O)(=O)c1cccc(Cl)c1Cl
3 | – | – | 0.2 | COc1nc(Br)cnc1NS(=O)(=O)c1ccc(Cl)s1
